Experimental findings from article PMC8391236, “Effect of Pterostilbene, a Natural Derivative of Resveratrol, in the Treatment of Colorectal Cancer through Top1/Tdp1-Mediated DNA Repair Pathway” (Cancers, 2021) are described below.

One experiment has as its system HFL-1. Put plainly: Proliferation of non-tumor cells (CCK-8). It counts as cell-based. As to conditions: Homo sapiens, HFL1. How it is done: (§1) The final concentration of DMSO was less than 0.1%, and 0.1% DMSO as negative control. CPT, as Top1 inhibitor, was diluted to 0.5 μM [36, 37], and FM, as Tdp1 inhibitor was diluted to 25 μM [38]. Exponentially growing cells were seeded in 96-well plates (5 × 10^3 cells/well) for 12 h. Various drugs were added separately and incubated for 24, 48, and 72 h. Cell viability was determined by CCK-8 (Beyotime Biotechnology, Shanghai, China) assay. […]
(§2) The drug concentration required for inhibiting cell proliferation by 50% (IC50) was determined by interpolation from dose-response curves.

A further experiment deals with L02. Put plainly: Proliferation of non-tumor cells (CCK-8). It counts as cell-based. As to conditions: Homo sapiens. How it is done: as §1, §2
The test system of another experiment is Tdp1-over CL187 cells. Put plainly: Cell viability of Tdp1-overexpressing cells. It is filed as cell-based, Human. How it is done:
CL187 cells were cultured on 6-cm dishes at 37 °C for 24 h. The plasmid (2.5 μg) was diluted with 125 μL serum-free medium Opti-MEM, mixed gently, and incubated at room temperature for 5 min. Lipo 3000 (Invitrogen, Waltham, MA, USA) were diluted with 125 μL serum-free medium Opti-MEM, mixed and incubated for 5 min. Mixed the plasmid and Lipo 3000, incubated at room temperature for 20 min, the mixture was added to CL187 cells, the Tdp1 overexpressed plasmid were transfected into CL187 cells.
PTE or RE were dissolved in DMSO and diluted with culture medium to 1–100 μM. The final concentration of DMSO was less than 0.1%, and 0.1% DMSO as negative control. CPT, as Top1 inhibitor, was diluted to 0.5 μM [36, 37], and FM, as Tdp1 inhibitor was diluted to 25 μM [38]. Exponentially growing cells were seeded in 96-well plates (5 × 10^3 cells/well) for 12 h. […] Cell viability was determined by CCK-8 (Beyotime Biotechnology, Shanghai, China) assay. Cell viability and inhibition rate were calculated with the following formulae:Cell viability (%) = [OD450 (sample)/OD450 (control)] × 100(1) Inhibition rate (%) = […] − cell viability (%)(2)
as §2

Experiment [1] concerns orthotopic CL187 xenograft. Put plainly: Orthotopic CL187 xenograft model. It is filed as in vivo, BABLc/nude mice. To be noted: for Tumor Weight: 21 days; for Ki67 labeling rate in tumor tissue: vector control 46.53±3.86%. As to the method:
The mice were anaesthetized with 10% chloral hydrate and fixed on the operating table. After the abdomen of the mice was disinfected with iodine, a small section of the large intestine was squeezed out of the surgical opening. The 0.1 mL (per mouse) CL187 cell suspension (1 × 10^7 /mL) was inoculated into the colon wall of nude mice. After the inoculation, the large intestine was placed into the mouse abdominal cavity. After the wound was sutured, the mice were put into cages until they naturally woke up. After 10 days of inoculation, the animals were randomly divided into 4 groups (6 mice per group). Vector control group was intraperitoneally injected with 5% DMSO and 95% saline containing 30% HP-β-CD (i.p.). The drug dosage was designed according to the results of the previous pharmacokinetic experiment. Experimental Group 1 was intraperitoneal injected (i.p.) with PTE 100 mg/kg, and experiment Group 2 was intragastric administrated (i.g.) with PTE 500 mg/kg, once a day. The bioavailability of PTE was the same in the animals in the above regimens. Positive control group was injected with irinotecan, 20 mg/kg, twice a week. During the experiment, the changes of body weight of nude mice were recorded. After 21 days, the nude mice were sacrificed, the tumor blocks were removed surgically, weighed, and recorded.
Tumor and organ tissues were paraffin-embedded and sectioned into […] after being fixed in 4% of paraformaldehyde solution for 24 h. The sections were deparaffinized and rehydrated before detection. For histological observation, tumor sections were stained with hematoxylin and eosin (HE), and then observed by an inverted microscopy (Olympus, Japan).
For immunohistochemistry analysis, the sections were treated with 3% hydrogen peroxide for 10 min to block endogenous peroxidase, and then incubated with Ki67 primary antibody for overnight at 4 °C. Subsequently, the sections were treated with secondary antibody at room temperature for 20 min. After being washed with PBS, the sections were incubated with DAB chromogenic solution for 10 min, followed by rewashing in PBS. The sections were counterstained with hematoxylin after DAB coloration. The antibody specificity was confirmed by negative control without primary antibody treatment. Immunopositive areas were observed by an inverted microscope (Olympus, Japan).

Another experiment has as its system Top1 and Tdp1. Put plainly: Top1 and Tdp1 in xenograft tumor tissues (WB, qPCR). To be noted: subcutaneous CL187 xenograft. It counts as in vivo, BABLc/nude mice. As to the method: The 20 mg of the tumor was added into 1 mL RIPA lysis, and homogenized for 3 times under low temperature condition, and centrifuged at 12,000 rpm for 10 min. Subsequently, the supernatant was collected, and the contents of Top1 and Tdp1 were determined by WB as described in Section 2.4.4. The 20 mg of tumor was added into 1 mL Trizol, and homogenized for 3 times. The expression levels of Top1 and Tdp1 were analyzed using the method described in Section 2.4.5.
On the technique in general: Quantitative PCR measures a nucleic acid by following its amplification.

The subject of another experiment is siRNA-Top1 CL187 cells. As to the kind of experiment: Cell viability of Top1-silenced cells. It is filed as cell-based. As to conditions: Homo sapiens, 36 h, siRNA-Top1 CL187, 36 h.
The subject of another experiment is CL187 cells. As to the kind of experiment: Apoptosis by flow cytometry (Annexin V-FITC/PI). It is filed as cell-based, Human. As to conditions: 48 h. As to the method: Exponentially growing CL187 cells were seeded in 6-well plates (1.2 × 10^6 cells/well) until a well was filled with cells. The RE or PTE at various concentrations were added separately into plate wells and incubated with cells for 48 h. The incubated cells were collected and treated by Annexin V-FITC/PI Apoptosis Detection Kit. The stained cells were analyzed with a flow cytometer (Becton-Dickinson, Franklin Lakes, NJ, USA), and data analyses were performed with BD Cell Quest^TM pro 6.0..
Background: Flow cytometry measures light scatter and fluorescence of single cells or particles in a stream.

A further experiment deals with siRNA-Tdp1 CL187 cells. Put plainly: Cell viability of Tdp1-silenced cells. It counts as cell-based. As to conditions: Homo sapiens, 36 h, siRNA-Tdp1 CL187, 36 h.

As usually defined, the IC50 is the point on the concentration scale where inhibition reaches its midpoint. A lower IC50 goes with greater potency.

As for `COc1cc(/C=C/c2ccc(O)cc2)cc(OC)c1` [PTE, 3,5-dimethoxy-4′-hydroxy-trans-stilbene], the IC50 stood at 339 µM with HFL-1 (HFL-1, 24 h); 315 µM in the experiment on HFL-1 (HFL-1, 48 h); 130 µM in the experiment with HFL-1 (HFL-1, 72 h); 478 µM in the experiment with L02 (L02, 24 h); 248 µM in the experiment on L02 (L02, 48 h); 148 µM with L02 (L02, 72 h). The half-maximal inhibitory concentration (IC50) with Tdp1-over CL187 cells (Homo sapiens, 24 h, Tdp1-over CL187, 24 h) is 63 ± 13.6 µM; in the experiment with Tdp1-over CL187 cells (Homo sapiens, 36 h, Tdp1-over CL187, 36 h), 41.1 ± 7.22 µM; in the experiment on Tdp1-over CL187 cells (Homo sapiens, 48 h, Tdp1-over CL187, 48 h), 20.3 ± 3.13 µM; in the experiment on Tdp1-over CL187 cells (Homo sapiens, 72 h, Tdp1-over CL187, 72 h) it was 19.1 ± 4.08 µM; in the experiment on Tdp1-over CL187 cells (Tdp1-over CL187, 72 h) it was around 20 µM; with siRNA-Top1 CL187 cells, 49 ± 10.1 µM. This compound also showed a half-inhibitory concentration (IC50) in the experiment on siRNA-Tdp1 CL187 cells of 34.2 ± 7.33 µM. Also, the “Tumor Weight” value in experiment [1] (100 mg/kg-i.p. once a day) came to 0.51 ± 0.12 g; in experiment [1] (500 mg/kg-i.g. once a day) it was 0.60 ± 0.06 g. Further, the “Ki67 labeling rate in tumor tissue” value was found to be 4.89 ± 1.82% in experiment [1] (100 mg/kg-i.p.) and 12.03 ± 3.40% in experiment [1] (500 mg/kg-i.g.). The “mRNA expression of Top1 and Tdp1 in tumor tissues” value with Top1 and Tdp1 is listed as “inhibited”. Further, in the experiment with Top1 and Tdp1 (especially high-concentration group), the “protein contents of Top1 and Tdp1 in tumor tissues (WB)” value is on record as “decreased significantly”. Also, the “apoptosis rate (early and late apoptotic cells)” value with CL187 cells (CL187, 10 μM) is given as 28.95%; in the experiment with CL187 cells (CL187, 20 μM), 29.69%; in the experiment with CL187 cells (CL187, 50 μM), 25.76%.
